This is an account of results in PMC10196118, “Evidence for broad cross-reactivity of the SARS-CoV-2 NSP12-directed CD4^+ T-cell response with pre-primed responses directed against common cold coronaviruses” (Frontiers in Immunology, 2023).

Common to all, as to assay: biochemical
Common to all, as to assay type: binding

The target of one assay is HLA DRB1*01:01 (Homo sapiens, UniProt P01903+P01911, A100R/D57E/F55L/F60I/F76Y/I96L/L162R/M171V/P40L/Q125E/R42F/V115G/Y59C). Conditions: binder threshold 1,000 nM, read-out: In vitro (IC50 nM) DRB1*01:01.
For a further assay, the target named is HLA DRB1*03:01 (Homo sapiens, UniProt P01903+P01911, A100K/A102G/A103R/A169T/F55Y/I96L/K41T/L162R/M171V/P40S/Q125H/Q178H/Q39Y/R42S/S66N/T106N/T262R/W38E/Y61H). As to conditions: binder threshold 1,000 nM, read-out: In vitro (IC50 nM) DRB1*03:01.
A further assay deals with HLA DRB1*04:01 (Homo sapiens, UniProt P01903+P01911, A100K/A169T/F76Y/I96L/K127E/L162R/M171V/N62H/P40V/Q125Y/R42H/S133A/S149N/S66Y/V115G/V209L/W38E). As to conditions: binder threshold 1,000 nM, read-out: In vitro (IC50 nM) DRB1*04:01.
A further assay deals with HLA DRB1*04:05 (Homo sapiens, UniProt P01903+P01911, A100R/A169T/D86S/F76Y/I96L/K127E/L162R/M171V/N62H/P40V/Q125Y/R42H/S133A/S149N/S66Y/V115G/V209L/W38E). As to conditions: binder threshold 1,000 nM, read-out: In vitro (IC50 nM) DRB1*04:05.
The target of another assay is HLA DRB1*07:01 (Homo sapiens, UniProt P01903+P01911, A100R/A102G/A103Q/D57E/D86V/E43K/F76Y/K127E/L162R/M171V/P40G/Q125H/Q99D/R33Q/R42Y/R54Q/S133A/S66F/T210M/V115G/Y107V/Y59L/Y89S). Conditions: binder threshold 1,000 nM, read-out: In vitro (IC50 nM) DRB1*07:01.
The target of the next assay is HLA DRB1*08:02 (Homo sapiens, UniProt P01903+P01911, A100R/A103L/A169T/F76Y/H45Y/I96F/K41T/L162R/M171V/P40S/Q125H/Q178H/Q39Y/Q99D/R218S/R42G/S66Y/V115G/W38E). Conditions: binder threshold 1,000 nM, read-out: In vitro (IC50 nM) DRB1*08:02.
The next assay has as its target HLA DRB1*09:01 (Homo sapiens, UniProt P01903+P01911, A100R/A103E/D57H/D86V/F55Y/F60I/F76Y/I96F/K127E/L162R/M171V/P40D/Q125H/Q99R/R33Q/R42F/S133A/S66N/T210M/V115G/W38K/Y107V/Y59G/Y89S). Conditions: binder threshold 1,000 nM, read-out: In vitro (IC50 nM) DRB1*09:01.
The target in the next assay is HLA DRB1*11:01 (Homo sapiens, UniProt P01903+P01911, A100R/A169T/A87E/I96F/K41T/L162R/M171V/P40S/Q125H/Q178H/Q39Y/Q99D/R42S/S66Y/T262R/V115G/W38E). Conditions: binder threshold 1,000 nM, read-out: In vitro (IC50 nM) DRB1*11:01.
The target of another assay is HLA DRB1*12:01 (Homo sapiens, UniProt P01903+P01911, A100R/A169T/D57E/D86V/F55L/H45Y/K41T/L162R/M171V/P40S/Q125H/Q178H/Q39Y/Q99D/R42G/S66L/T262R/V114A/V67L/W38E/Y59H/Y61H/Y89S). As to conditions: binder threshold 1,000 nM, read-out: In vitro (IC50 nM) DRB1*12:01.
Another assay deals with HLA DRB1*15:01 (Homo sapiens, UniProt P01903+P01911). Conditions: binder threshold 1,000 nM, read-out: In vitro (IC50 nM) DRB1*15:01.
A further assay deals with HLA DRB1*13:02 (Homo sapiens, UniProt P01903+P01911, A100E/A169T/K41T/L162R/M171V/P40S/Q125H/Q178H/Q39Y/Q99D/R42S/S66N/T262R/V115G/W38E/Y61H). As to conditions: binder threshold 1,000 nM, read-out: In vitro (IC50 nM) DRB1*13:02.
HLA DRB1*13:02, sequence (P01903 26-254 limits assumed, other chains not shown): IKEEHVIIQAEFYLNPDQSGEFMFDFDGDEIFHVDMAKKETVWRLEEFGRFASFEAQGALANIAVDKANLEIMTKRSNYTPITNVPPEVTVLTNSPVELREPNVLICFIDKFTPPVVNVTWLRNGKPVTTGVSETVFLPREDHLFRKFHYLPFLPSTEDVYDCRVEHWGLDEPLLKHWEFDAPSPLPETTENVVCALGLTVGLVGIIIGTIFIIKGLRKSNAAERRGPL

HLA DRB1*03:01, sequence (P01903 26-254, other chains not shown): as the sequence (P01903 26-254 limits assumed, other chains not shown) above
HLA DRB1*11:01, sequence (P01903 26-254, other chains not shown): as the sequence (P01903 26-254 limits assumed, other chains not shown) above

What is called IC50 is the concentration needed to halve the response being measured. `CC[C@H](C)[C@H](NC(=O)[C@@H]1CCCN1C(=O)[C@H](CCSC)NC(=O)[C@H](CC(C)C)NC(=O)[C@H](CC(C)C)NC(=O)[C@H](CO)NC(=O)[C@H](Cc1ccc(O)cc1)NC(=O)[C@H](Cc1ccc(O)cc1)NC(=O)[C@@H](N)CO)C(=O)N[C@@H](CC(C)C)C(=O)N[C@H](C(=O)N[C@@H](CC(C)C)C(=O)N[C@H](C(=O)N[C@@H](CCCNC(=N)N)C(=O)N[C@@H](C)C(=O)O)[C@@H](C)O)[C@@H](C)O` [NSP12_48]: the concentration for half-maximal inhibition (IC50) amounted to 7.7 nM on HLA DRB1*01:01; 9120 nM at HLA DRB1*03:01; 224 nM at HLA DRB1*04:01; 147 nM at HLA DRB1*04:05; 115 nM on HLA DRB1*07:01; 498 nM at HLA DRB1*08:02. The IC50 turned out to be 1550 nM on HLA DRB1*09:01, 73 nM on HLA DRB1*11:01, 1350 nM at HLA DRB1*12:01 and 23 nM at HLA DRB1*15:01.

For the molecule `CC[C@H](C)[C@H](NC(=O)[C@@H]1CCCN1C(=O)[C@H](CCSC)NC(=O)[C@@H](N)CC(C)C)C(=O)N[C@@H](CC(C)C)C(=O)N[C@H](C(=O)N[C@@H](CC(C)C)C(=O)N[C@H](C(=O)N[C@@H](CCCNC(=N)N)C(=O)N[C@@H](C)C(=O)N[C@@H](CC(C)C)C(=O)N[C@H](C(=O)N[C@@H](C)C(=O)N[C@@H](CCC(=O)O)C(=O)N[C@@H](CO)C(=O)O)[C@@H](C)O)[C@@H](C)O)[C@@H](C)O` [NSP12_49], the IC50 was 136 nM on HLA DRB1*01:01; 12100 nM on HLA DRB1*03:01; 20 nM at HLA DRB1*04:01; 367 nM on HLA DRB1*04:05; 15 nM on HLA DRB1*07:01; 283 nM at HLA DRB1*08:02. Besides, the IC50 at HLA DRB1*09:01 was determined as 123 nM; at HLA DRB1*11:01 it was 37 nM; on HLA DRB1*12:01, 131 nM; at HLA DRB1*13:02, 409 nM; at HLA DRB1*15:01, 37 nM.

As to `CC(C)C[C@H](NC(=O)[C@H](C)NC(=O)[C@H](CCCNC(=N)N)NC(=O)[C@@H](NC(=O)[C@H](CC(C)C)NC(=O)[C@@H](N)[C@@H](C)O)[C@@H](C)O)C(=O)N[C@H](C(=O)N[C@@H](C)C(=O)N[C@@H](CCC(=O)O)C(=O)N[C@@H](CO)C(=O)N[C@@H](Cc1c[nH]cn1)C(=O)N[C@H](C(=O)N[C@@H](CC(=O)O)C(=O)N[C@H](C(=O)N[C@@H](CC(=O)O)C(=O)O)[C@@H](C)O)C(C)C)[C@@H](C)O` [NSP12_50], the IC50 amounted to 2100 nM on HLA DRB1*01:01; 1640 nM at HLA DRB1*03:01; 4.1 nM at HLA DRB1*04:01; 99 nM on HLA DRB1*04:05; 14 nM on HLA DRB1*07:01; 501 nM at HLA DRB1*08:02. Besides, the concentration for half-maximal inhibition (IC50) is 59 nM on HLA DRB1*09:01, 301 nM on HLA DRB1*11:01, 4490 nM at HLA DRB1*12:01 and 1290 nM at HLA DRB1*15:01.

As to `CC[C@H](C)[C@H](NC(=O)[C@@H](NC(=O)[C@@H]1CCCN1C(=O)[C@@H](NC(=O)[C@@H](NC(=O)[C@H](CC(N)=O)NC(=O)[C@H](CCCNC(=N)N)NC(=O)[C@H](CCCCN)NC(=O)[C@@H](NC(=O)[C@H](Cc1ccc(O)cc1)NC(=O)[C@H](C)NC(=O)[C@H](Cc1ccccc1)NC(=O)[C@H](CC(C)C)NC(=O)[C@H](C)N)[C@@H](C)O)C(C)C)[C@@H](C)CC)[C@@H](C)O)C(=O)N[C@H](C(=O)O)[C@@H](C)O` [NSP12_106], the half-inhibitory concentration (IC50) was determined as 7360 nM at HLA DRB1*01:01; 709 nM at HLA DRB1*03:01; 3660 nM at HLA DRB1*04:01; 13000 nM at HLA DRB1*04:05; 1.6 nM at HLA DRB1*07:01; 190 nM at HLA DRB1*08:02. Besides, the IC50 at HLA DRB1*09:01 turned out to be 52 nM; at HLA DRB1*11:01, 6.6 nM; at HLA DRB1*12:01, 756 nM; on HLA DRB1*13:02, 32 nM; on HLA DRB1*15:01, 770 nM.

For `CC(C)C[C@H](NC(=O)[C@H](CCCNC(=N)N)NC(=O)[C@H](Cc1ccc(O)cc1)NC(=O)[C@H](Cc1ccccc1)NC(=O)[C@H](CCCNC(=N)N)NC(=O)[C@H](Cc1c[nH]cn1)NC(=O)[C@H](CO)NC(=O)[C@H](CC(C)C)NC(=O)[C@H](CO)NC(=O)[C@H](CS)NC(=O)[C@H](CS)NC(=O)[C@@H](NC(=O)[C@@H](NC(=O)[C@H](Cc1c[nH]cn1)NC(=O)[C@@H](N)CCCCN)[C@@H](C)O)[C@@H](C)O)C(=O)O` [NSP12_129], the IC50 stood at 279 nM at HLA DRB1*01:01; 916 nM on HLA DRB1*03:01; 613 nM on HLA DRB1*04:01; 644 nM at HLA DRB1*04:05; 56 nM on HLA DRB1*07:01; 1010 nM at HLA DRB1*08:02. Moreover, the half-inhibitory concentration (IC50) amounted to 286 nM at HLA DRB1*09:01; 235 nM at HLA DRB1*11:01; 59 nM on HLA DRB1*12:01; 1170 nM on HLA DRB1*13:02; 447 nM on HLA DRB1*15:01.

For `CC(C)C[C@H](NC(=O)[C@H](CCCNC(=N)N)NC(=O)[C@H](Cc1ccc(O)cc1)NC(=O)[C@H](Cc1ccccc1)NC(=O)[C@@H](N)CCCNC(=N)N)C(=O)N[C@@H](C)C(=O)N[C@@H](CC(N)=O)C(=O)N[C@@H](CCC(=O)O)C(=O)N[C@@H](CS)C(=O)N[C@@H](C)C(=O)N[C@@H](CCC(N)=O)C(=O)N[C@H](C(=O)N[C@@H](CC(C)C)C(=O)N[C@@H](CO)C(=O)N[C@@H](CCC(=O)O)C(=O)O)C(C)C` [NSP12_131], the IC50 at HLA DRB1*01:01 came to 53 nM; at HLA DRB1*03:01, 8410 nM; at HLA DRB1*04:01, 27 nM; on HLA DRB1*04:05, 270 nM; on HLA DRB1*07:01 it was 279 nM; at HLA DRB1*08:02, 2350 nM. Moreover, the IC50 was determined as 48 nM at HLA DRB1*09:01; 367 nM at HLA DRB1*11:01; 6320 nM on HLA DRB1*12:01; 23800 nM at HLA DRB1*13:02; 611 nM on HLA DRB1*15:01.

Consider `CSCC[C@H](NC(=O)[C@@H](NC(=O)[C@@H]1CCCN1C(=O)[C@H](CC(C)C)NC(=O)[C@H](CC(N)=O)NC(=O)[C@H](Cc1ccc(O)cc1)NC(=O)[C@H](CCCNC(=N)N)NC(=O)[C@H](Cc1ccc(O)cc1)NC(=O)[C@H](Cc1ccc(O)cc1)NC(=O)[C@H](CC(=O)O)NC(=O)[C@H](Cc1ccc(O)cc1)NC(=O)[C@H](CC(=O)O)NC(=O)[C@@H](N)CO)[C@@H](C)O)C(=O)N[C@@H](CS)C(=O)N[C@@H](CC(=O)O)C(=O)O` [Peptide 91], for which the concentration for half-maximal inhibition (IC50) at HLA DRB1*01:01 came to 6670 nM; at HLA DRB1*04:01, 830 nM; at HLA DRB1*04:05, 3280 nM; on HLA DRB1*07:01 it was 549 nM; at HLA DRB1*08:02, 3510 nM; at HLA DRB1*09:01 it was 1430 nM. Also, the IC50 on HLA DRB1*11:01 is 18200 nM; at HLA DRB1*12:01, 29600 nM; at HLA DRB1*13:02, 13600 nM; at HLA DRB1*15:01 it was 1480 nM.
